Values of other authors, collected in patent US20040192598A1, “Composition and method of alleviating adverse side effects and/or enhancing efficacy of agents that inhibit aromatase” (priority 2000, published 2004).
Read-outs that look alike come from different tables or passages of the source.

Assays:
aromatase = molecular target: T1, aromatase (Homo sapiens, UniProt P11511); conditions: treatment for breast cancer
T1 construct: host or cells: patients (in vivo, endogenous enzyme)
T1 sequence (P11511 1-503): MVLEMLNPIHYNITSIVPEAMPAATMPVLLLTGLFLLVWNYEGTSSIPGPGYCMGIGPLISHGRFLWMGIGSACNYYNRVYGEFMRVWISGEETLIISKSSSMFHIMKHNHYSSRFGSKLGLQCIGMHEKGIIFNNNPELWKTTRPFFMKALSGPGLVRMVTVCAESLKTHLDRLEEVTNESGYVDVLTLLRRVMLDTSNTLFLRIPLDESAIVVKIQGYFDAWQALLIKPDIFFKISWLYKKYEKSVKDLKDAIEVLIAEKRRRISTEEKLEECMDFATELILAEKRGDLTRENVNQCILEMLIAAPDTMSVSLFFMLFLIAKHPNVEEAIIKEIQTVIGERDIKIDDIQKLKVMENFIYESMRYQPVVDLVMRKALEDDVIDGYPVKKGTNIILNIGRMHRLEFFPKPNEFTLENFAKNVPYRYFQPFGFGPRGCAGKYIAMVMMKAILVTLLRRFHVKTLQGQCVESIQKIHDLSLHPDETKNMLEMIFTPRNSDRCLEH

## N#Cc1ccc(C(c2ccc(C#N)cc2)n2cncn2)cc1 [Letrozole]
aromatase
  serum estrogen levels: suppress serum estrogen levels to the limit of assay detection

## CC(C)(C#N)c1cc(Cn2cncn2)cc(C(C)(C)C#N)c1 [anastrozole]
aromatase
  serum estrogen levels: suppress serum estrogen levels to the limit of assay detection

## Clc1ccccc1C(c1ccccc1)(c1ccccc1)n1ccnc1 [clotrimazole]
In vivo
  relative risk for spontaneous abortion: increased relative risk was also noted

## C[C@@H]1[C@H](O)[C@@H](C)/C=C/C=C/CC/C=C/C=C/C=C/C=C/C(O[C@H]2O[C@H](C)[C@@H](O)[C@H](N)[C@@H]2O)CC2O[C@](O)(CC(O)C(O)CCC(O)CC(O)CC(O)CC(=O)O[C@H]1C)CC(O)C2C(=O)O (stereo partly shown) [nystatin]
first-trimester exposure, independent of drug therapy indication
  relative risk for spontaneous abortion: not
